Data published in paper PMC9161374 (Science Translational Medicine, 2022).
Several values for one entry are separate records, joined by “and”; a condition that tells them apart may be missing. Identical values can stand only once. Like-named read-outs stand apart in the source and are kept apart here.

Columns and labels:
[1] = test system: SARS-CoV-2 replicon system (pBAC-SARS-CoV-2-Replicon-Luc); assay: microbe, parasite or virus in culture; type: cell-based; conditions: Severe acute respiratory syndrome coronavirus 2, HEK-293T, 60 h
[2] = test system: SARS-CoV-2 (B.1); assay: Anti-SARS-CoV-2 activity in Vero E6 cells (viral yield by qRT-PCR); type: cell-based
[3] = test system: SARS-CoV-2 (Beta, B.1.351); assay: microbe, parasite or virus in culture; type: cell-based; conditions: for EC50: read-out: EC50 in Vero E6 cells, SARS-CoV-2 (Beta, B.1.351); for % Inhibition: beta
[4] = test system: SARS-CoV-2 (Delta, B.1.617.2); assay: microbe, parasite or virus in culture; type: cell-based; conditions: for % Inhibition: delta
[5] = test system: SARS-CoV-2 (B.1) in Huh7 cells; assay: Anti-SARS-CoV-2 activity in Huh7 cells (viral yield by qRT-PCR); type: cell-based; conditions: B.1, MOI 0.05, 48 h
[6] = CCK-8 cell viability assay; type: cell-based, African green monkey; conditions: African green monkey; Vero E6 cells, 48 h, CCK8
Protocol: To investigate the effect of drugs on cell viability, Vero E6 cells were seeded in 96-well plates at a density of 20,000 cells per well and were treated with drugs at indicated concentrations (0, 0.01, 0.1, 1, 5, 10, 50, 75, 100, 200 μM) for 48 hours. Cell viability was tested by using Cell Counting Kit-8 (CCK-8, Bimake, B34302). The figures were plotted from cell viability percentage versus the drug concentrations using GraphPad Prism 6 software.
Fig. S4. Cytotoxicity assay of compounds in Vero E6 cells.
Vero E6 cells were plated in 96-well plates and treated with increasing concentrations
of each indicated compound, ranging from 0 to 200 μM, for 48 hours. Cell viability was
tested using Cell Counting Kit-8 (CCK-8). Data are presented as mean ± SD.

[7] = test system: SARS-CoV-2 (strain B.1); assay: SARS-CoV-2 infection in Ad5-hACE2 mice; type: in vivo, Ad5-hACE2 BALB/c mice

CCCC(=O)OC[C@H]1O[C@@](C#N)(c2ccc3c(N)ncnn23)[C@H](O)[C@@H]1O [ATV009]
EC50 ([1]; read-out: EC50 (Confidence 95%), replicon): 217 nM
EC90 ([1]; read-out: EC90 (Confidence 95%), replicon): 313 nM
% Inhibition ([2]; 1 μM, replicates, sheet Fig.S3): 55.195%
% Inhibition ([2]; 2 μM, replicates, sheet Fig.S3): 75.409%
% Inhibition ([2]; 5 μM, replicates, sheet Fig.S3): 88.59%
% Inhibition ([2]; 10 μM, replicates, sheet Fig.S3): 90.9393%
% Inhibition ([2]; B.1, 2 uM, Vero E6, replicates, 2 µM): 99.9224%
% Inhibition ([2]; B.1, 5 uM, Vero E6, replicates, 5 µM): 99.9224%
% Inhibition ([2]; B.1, 10 uM, Vero E6, replicates, 10 µM): 99.9809%
% Inhibition ([2]; B.1, 50 uM, Vero E6, replicates, 50 µM): 99.9896%
inhibition at 0.1 µM ([2]; Severe acute respiratory syndrome coronavirus 2, Vero C1008, 0.1 μM, replicates, sheet Fig.S3): 0%
inhibition at 0.5 µM ([2]; Severe acute respiratory syndrome coronavirus 2, Vero C1008, 0.5 μM, replicates, sheet Fig.S3): 0%
inhibition at 1 µM ([2]; Severe acute respiratory syndrome coronavirus 2, Vero C1008, 1 μM, replicates, sheet Fig.S3): 63.5%
inhibition at 2 µM ([2]; Severe acute respiratory syndrome coronavirus 2, Vero C1008, 2 μM, replicates, sheet Fig.S3): 75.7%
inhibition at 5 µM ([2]; Severe acute respiratory syndrome coronavirus 2, Vero C1008, 5 μM, replicates, sheet Fig.S3): 90.9%
inhibition at 10 µM ([2]; Severe acute respiratory syndrome coronavirus 2, Vero C1008, 10 μM, replicates, sheet Fig.S3): 93.2%
inhibition at 0.01 µM ([2]; Severe acute respiratory syndrome coronavirus 2, Vero C1008, B.1, 0.01 uM, Vero E6, replicates): 0%
inhibition at 0.1 µM ([2]; Severe acute respiratory syndrome coronavirus 2, Vero C1008, B.1, 0.1 uM, Vero E6, replicates): 0%
inhibition at 0.25 µM ([2]; Severe acute respiratory syndrome coronavirus 2, Vero C1008, B.1, 0.25 uM, Vero E6, replicates): 0%
inhibition at 0.5 µM ([2]; Severe acute respiratory syndrome coronavirus 2, Vero C1008, B.1, 0.5 uM, Vero E6, replicates): 0%
inhibition at 1 µM ([2]; Severe acute respiratory syndrome coronavirus 2, Vero C1008, B.1, 1 uM, Vero E6, replicates): 0%
inhibition at 2 µM ([2]; Severe acute respiratory syndrome coronavirus 2, Vero C1008, B.1, 2 uM, Vero E6, replicates): 99.8%
inhibition at 5 µM ([2]; Severe acute respiratory syndrome coronavirus 2, Vero C1008, B.1, 5 uM, Vero E6, replicates): 99.8%
inhibition at 10 µM ([2]; Severe acute respiratory syndrome coronavirus 2, Vero C1008, B.1, 10 uM, Vero E6, replicates): 99.9%
inhibition at 50 µM ([2]; Severe acute respiratory syndrome coronavirus 2, Vero C1008, B.1, 50 uM, Vero E6, replicates): 99.9%
EC90 ([2]; Severe acute respiratory syndrome coronavirus 2, Vero C1008, read-out: EC90 (Confidence 95%)): 1530 nM
EC50 ([2]; Severe acute respiratory syndrome coronavirus 2, Vero C1008, MOI 0.05, 48 h): 1330 nM
EC50 ([3]; Severe acute respiratory syndrome coronavirus 2, Vero C1008, 48 h): 1380 nM
inhibition at 0.01 µM ([3]; Severe acute respiratory syndrome coronavirus 2, Vero C1008, beta, 0.01 uM, Vero E6, replicates): 0%
inhibition at 0.1 µM ([3]; Severe acute respiratory syndrome coronavirus 2, Vero C1008, beta, 0.1 uM, Vero E6, replicates): 0%
inhibition at 0.25 µM ([3]; Severe acute respiratory syndrome coronavirus 2, Vero C1008, beta, 0.25 uM, Vero E6, replicates): 0%
inhibition at 0.5 µM ([3]; Severe acute respiratory syndrome coronavirus 2, Vero C1008, beta, 0.5 uM, Vero E6, replicates): 0%
inhibition at 1 µM ([3]; Severe acute respiratory syndrome coronavirus 2, Vero C1008, beta, 1 uM, Vero E6, replicates): 0%
inhibition at 2 µM ([3]; Severe acute respiratory syndrome coronavirus 2, Vero C1008, beta, 2 uM, Vero E6, replicates): 97%
inhibition at 5 µM ([3]; Severe acute respiratory syndrome coronavirus 2, Vero C1008, beta, 5 uM, Vero E6, replicates): 99.7%
inhibition at 10 µM ([3]; Severe acute respiratory syndrome coronavirus 2, Vero C1008, beta, 10 uM, Vero E6, replicates): 99.9%
inhibition at 50 µM ([3]; Severe acute respiratory syndrome coronavirus 2, Vero C1008, beta, 50 uM, Vero E6, replicates): 99.9%
EC90 ([3]; Severe acute respiratory syndrome coronavirus 2, Vero C1008, read-out: EC90 (Confidence 95%), Vero-E6, Beta B.1.351): 1780 nM
% Inhibition ([3]; 2 uM, Vero E6, replicates): 97.0202%
% Inhibition ([3]; 5 uM, Vero E6, replicates): 99.5977%
% Inhibition ([3]; 10 uM, Vero E6, replicates): 99.9341%
% Inhibition ([3]; 50 uM, Vero E6, replicates): 99.9498%
EC50 [3]: 1480 nM
EC50 ([4]; Severe acute respiratory syndrome coronavirus 2, Vero C1008, 48 h, read-out: EC50 in Vero E6 cells, SARS-CoV-2 (Delta, B.1.617.2)): 492 nM
inhibition at 0.01 µM ([4]; Severe acute respiratory syndrome coronavirus 2, Vero C1008, delta, 0.01 uM, Vero E6, replicates): 0%
inhibition at 0.1 µM ([4]; Severe acute respiratory syndrome coronavirus 2, Vero C1008, delta, 0.1 uM, Vero E6, replicates): 0%
inhibition at 0.25 µM ([4]; Severe acute respiratory syndrome coronavirus 2, Vero C1008, delta, 0.25 uM, Vero E6, replicates): 0%
inhibition at 0.5 µM ([4]; Severe acute respiratory syndrome coronavirus 2, Vero C1008, delta, 0.5 uM, Vero E6, replicates): 57.8%
inhibition at 1 µM ([4]; Severe acute respiratory syndrome coronavirus 2, Vero C1008, delta, 1 uM, Vero E6, replicates): 94%
inhibition at 2 µM ([4]; Severe acute respiratory syndrome coronavirus 2, Vero C1008, delta, 2 uM, Vero E6, replicates): 95.8%
inhibition at 5 µM ([4]; Severe acute respiratory syndrome coronavirus 2, Vero C1008, delta, 5 uM, Vero E6, replicates): 91.8%
inhibition at 10 µM ([4]; Severe acute respiratory syndrome coronavirus 2, Vero C1008, delta, 10 uM, Vero E6, replicates): 99.7%
inhibition at 50 µM ([4]; Severe acute respiratory syndrome coronavirus 2, Vero C1008, delta, 50 uM, Vero E6, replicates): 99.9%
EC90 ([4]; Severe acute respiratory syndrome coronavirus 2, Vero C1008, read-out: EC90 (Confidence 95%), Vero-E6, Delta B.1.617.2): 678 nM
% Inhibition ([4]; 0.5 uM, Vero E6, replicates): 47.7229%
% Inhibition ([4]; 1 uM, Vero E6, replicates): 93.0132%
% Inhibition ([4]; 2 uM, Vero E6, replicates): 93.5943%
% Inhibition ([4]; 5 uM, Vero E6, replicates): 86.9079%
% Inhibition ([4]; 10 uM, Vero E6, replicates): 98.6486%
% Inhibition ([4]; 50 uM, Vero E6, replicates): 99.5907%
EC50 ([5]; Severe acute respiratory syndrome coronavirus 2, Huh-7, read-out: EC50 (Confidence 95%) in Huh7 cells): 1040 nM
EC90 ([5]; Severe acute respiratory syndrome coronavirus 2, Huh-7, read-out: EC90 (Confidence 95%) in Huh7 cells): 1310 nM
CC50 at 48 h [6]: > 50000 nM

CC(C)C(=O)OC[C@H]1O[C@@H](n2ccc(NO)nc2=O)[C@H](O)[C@@H]1O [EIDD-2801, molnupiravir, reference compound]
Lung viral titer, Log10 (FFU/g) ([7]; 500 mg/kg orally once daily, 2 dpi, FFA, individual mice): 3.468 Log10 (FFU/g) and 2.623 Log10 (FFU/g) and 3.1 Log10 (FFU/g)
viral load and pathological damage of the lung ([7]; ATV006 250 mg/kg, EIDD-2801 500 mg/kg, orally once daily): reduce the viral load and pathological damage of the lung
